From US4959368A, “Therapeutic agent for neurological diseases” (Mitsui Petrochemical Industries Ltd., priority 1986, dated 1990)

System: mouse neuroblastoma cell line neuro-2a
Test: Activity on neuro-2a, cells with outgrown neurites
Assay type: cell-based
Protocol: In order to examine the effects of the test compounds, the following method was also employed.
Mouse neuro 2a cells in the logarithmic growth period in the Dulbecco's modified Eagle's medium (DMEM) containing 10% FCS was seeded in a 48-well plate so that the number of cells was 1,000 cells/well, and cultured for one day in 0.25 ml of the culture fluid in each well. The culture medium was then replaced by a medium containing each of the test compounds and FCS, and the cells were further cultured for 24 hours. Then, a 4% aqueous glutaraldehyde solution in the same amount as the medium (0.25 ml) was added, and the culture fluid was left to stand at room temperature for 2 hours to fix the cells. After washing with water, a 0.05% aqueous solution of methylene blue was added to stain the cells. Under a microscope, the number of cells containing outgrown neurites (cells having at least one neutrite with a length at least two times as large as the long diameter of the cell) was counted visually, and the proportion of these cells in the entire cells was calculated. The well was observed over 5 or more visual fields (at least 2% of the entire surface area of the well) continuous to the left and right from a mark put at the center of the well, and more than 200 cells was counted. One drug compound was used in 6 different concentrations at most, and three runs were conducted for each concentration.

[1] = Table 3 Run No. 8, 0.3 mM, control 3.7 ± 0.4
[2] = Table 3 Run No. 8, 0.5 mM, control 3.7 ± 0.4
[3] = Table 3 Run No. 8, 1 mM, control 3.7 ± 0.4
[4] = Table 3 Run No. 4, 0.1 mM, control 3.1 ± 0.2
[5] = Table 3 Run No. 4, 1 mM, control 3.1 ± 0.2
[6] = Table 3 Run No. 10, 0.1 mM, control 1.7 ± 0.7
[7] = Table 3 Run No. 9, 0.1 mM, control 2.0 ± 1.0
[8] = Table 3 Run No. 9, 3 mM, control 2.0 ± 1.0
[9] = Table 3 Run No. 4, 0.3 mM, control 3.1 ± 0.2
[10] = Table 3 Run No. 4, 0.5 mM, control 3.1 ± 0.2
[11] = Table 3 second Run No. 5, 1 mM, control 4.5 ± 0.3
[12] = Table 3 Run No. 9, 0.03 mM, control 2.0 ± 1.0
[13] = Table 3 Run No. 2, 1 mM, control 1.9 ± 0.9
[14] = Table 3 Run No. 9, 0.3 mM, control 2.0 ± 1.0

Structure (SMILES): CN1C(=O)Cc2cnc(N3CCNCC3)nc21 [Compound 414]
- Cells having neurites with a length at least twice the long diameter of cell/total number of cells [1]: 15.0 ± 4.0%
- Cells having neurites with a length at least twice the long diameter of cell/total number of cells [2]: 33.4 ± 2.6%
- Cells having neurites with a length at least twice the long diameter of cell/total number of cells [3]: 43.6 ± 7.8%

Structure (SMILES): CC1Cc2nc(N3CCNCC3)ncc2C(=O)O1.Cl (centres unmarked) [Compound 918, 7,8-Dihydro-7-methyl-5-oxo-2-piperazino(5H)pyrano[4,3-d]pyrimidine hydrochloride]
- Cells having neurites with a length at least twice the long diameter of cell/total number of cells [4]: 7.4 ± 2.5%
- Cells having neurites with a length at least twice the long diameter of cell/total number of cells [5]: 12.5 ± 0.9%

Structure (SMILES): COC(=O)c1cnc(N2CCNCC2)nc1NC(C)C [Compound 116]
- Cells having neurites with a length at least twice the long diameter of cell/total number of cells (Table 3 Run No. 10, 0.01 mM, control 1.7 ± 0.7): 7.5 ± 2.2%
- Cells having neurites with a length at least twice the long diameter of cell/total number of cells (Table 3 Run No. 10, 0.03 mM, control 1.7 ± 0.7): 11.6 ± 2.0%
- Cells having neurites with a length at least twice the long diameter of cell/total number of cells [6]: 10.6 ± 4.5%

Structure (SMILES): CN1C(=O)Cc2cnc(N3CCN(Cc4ccccc4)CC3)nc21 [Compound 434, 2-(4-Benzylpiperazino)-5,6-dihydro-7-methyl-6-oxo(7H)pyrrolo[2,3-d]pyrimidine 2-naphthalenesulfonate]
- Cells having neurites with a length at least twice the long diameter of cell/total number of cells [7]: 6.0 ± 1.2%

Structure (SMILES): Cc1cc2c(C)nc(N3CCNCC3)nc2o1.Cl [Compound 906, 4,6-Dimethyl-2-piperazinofuro[2,3-d]pyrimidine hydrochloride]
- Cells having neurites with a length at least twice the long diameter of cell/total number of cells (Table 3 Run No. 6, 0.1 mM, control 4.4 ± 0.9): 7.4 ± 1.0%
- Cells having neurites with a length at least twice the long diameter of cell/total number of cells (Table 3 Run No. 6, 0.3 mM, control 4.4 ± 0.9): 7.0 ± 0.6%

Structure (SMILES): CC(=O)N1CCN(c2ncc3c(n2)N(C)C(=O)C3)CC1 [Compound 440, 2-(4-Acetylpiperazino)-5,6-dihydro-7-methyl-6-oxo(7H)pyrrolo[2,3-d]pyrimidine]
- Cells having neurites with a length at least twice the long diameter of cell/total number of cells (Table 3 Run No. 9, 1 mM, control 2.0 ± 1.0): 5.8 ± 1.0%
- Cells having neurites with a length at least twice the long diameter of cell/total number of cells [8]: 12.9 ± 4.1%

Structure (SMILES): Cl.c1nc(N2CCNCC2)nc2c1CCO2 [Compound 902, 5,6-Dihydro-2-piperazinofuro[2,3-d]pyrimidine hydrochloride]
- Cells having neurites with a length at least twice the long diameter of cell/total number of cells (Table 3 Run No. 6, 0.01 mM, control 4.4 ± 0.9): 6.9 ± 0.8%
- Cells having neurites with a length at least twice the long diameter of cell/total number of cells (Table 3 Run No. 6, 0.03 mM, control 4.4 ± 0.9): 6.7 ± 0.9%
- Cells having neurites with a length at least twice the long diameter of cell/total number of cells (Table 3 Run No. 6, 1 mM, control 4.4 ± 0.9): 6.7 ± 1.0%

Structure (SMILES): Cc1nc(N2CCNCC2)nc2c1CC(=O)N2C [Compound 464, 5,6-Dihydro-4,7-dimethyl-6-oxo-2-piperazino(7H)pyrrolo[2,3-d]pyrimidine]
- Cells having neurites with a length at least twice the long diameter of cell/total number of cells [4]: 7.1 ± 1.6%
- Cells having neurites with a length at least twice the long diameter of cell/total number of cells [9]: 10.1 ± 1.9%
- Cells having neurites with a length at least twice the long diameter of cell/total number of cells [5]: 13.1 ± 1.1%

Structure (SMILES): CN1C(=O)Cc2cnc(N3CCNCC3)nc21 [Compound 412]
- Cells having neurites with a length at least twice the long diameter of cell/total number of cells (Table 3 Run No. 3, 0.3 mM, control 3.9 ± 0.3): 16.6 ± 2.6%
- Cells having neurites with a length at least twice the long diameter of cell/total number of cells (Table 3 Run No. 3, 1 mM, control 3.9 ± 0.3): 44.2 ± 1.4%
- Cells having neurites with a length at least twice the long diameter of cell/total number of cells [9]: 15.8 ± 2.3%
- Cells having neurites with a length at least twice the long diameter of cell/total number of cells [10]: 27.9 ± 2.9%
- Cells having neurites with a length at least twice the long diameter of cell/total number of cells [5]: 47.8 ± 0.4%
- Cells having neurites with a length at least twice the long diameter of cell/total number of cells [1]: 18.4 ± 0.5%
- Cells having neurites with a length at least twice the long diameter of cell/total number of cells [2]: 49.5 ± 3.5%
- Cells having neurites with a length at least twice the long diameter of cell/total number of cells [3]: 32.6 ± 1.3%

Structure (SMILES): Cc1nc(N2CCNCC2)nc2c1CC(=O)N2C.Cl [Compound 466, 5,6-Dihydro-4,7-dimethyl-6-oxo-2-piperazino(7H)pyrrolo[2,3-d]pyrimidine hydrochloride]
- Cells having neurites with a length at least twice the long diameter of cell/total number of cells (Table 3 second Run No. 5, 0.1 mM, control 4.5 ± 0.3): 5.4 ± 0.3%
- Cells having neurites with a length at least twice the long diameter of cell/total number of cells [11]: 13.1 ± 1.4%

Structure (SMILES): CNc1nc(N2CCNCC2)ncc1CCO [Compound 140, 2-Piperazino-5-(2-hydroxyethyl)-4-methylaminopyrimidine 2-naphthalenesulfonate]
- Cells having neurites with a length at least twice the long diameter of cell/total number of cells [12]: 3.7 ± 1.4%

Structure (SMILES): Cn1ccc2nc(N3CCNCC3)ncc2c1=O [Compound 707]
- Cells having neurites with a length at least twice the long diameter of cell/total number of cells (Table 3 Run No. 7, 0.3 mM, control 2.5 ± 0.7): 7.3 ± 1.0%
- Cells having neurites with a length at least twice the long diameter of cell/total number of cells (Table 3 Run No. 7, 0.5 mM, control 2.5 ± 0.7): 10.5 ± 1.5%
- Cells having neurites with a length at least twice the long diameter of cell/total number of cells (Table 3 Run No. 7, 1 mM, control 2.5 ± 0.7): 21.4 ± 1.7%
- Cells having neurites with a length at least twice the long diameter of cell/total number of cells (Table 3 second Run No. 5, 0.01 mM, control 4.5 ± 0.3): 6.1 ± 0.5%
- Cells having neurites with a length at least twice the long diameter of cell/total number of cells [11]: 36.1 ± 3.7%

Structure (SMILES): CN1C(=O)Cc2cnc(N3CCNCC3)nc21 [Compound 416]
- Cells having neurites with a length at least twice the long diameter of cell/total number of cells (Table 3 Run No. 8, 0.1 mM, control 3.7 ± 0.4): 11.7 ± 3.3%
- Cells having neurites with a length at least twice the long diameter of cell/total number of cells [1]: 40.4 ± 9.2%
- Cells having neurites with a length at least twice the long diameter of cell/total number of cells [2]: 48.7 ± 5.7%

Structure (SMILES): CN1C(=O)Cc2cnc(N3CCNCC3)nc21.O=P(O)(O)O [Compound 418, 5,6-Dihydro-7-methyl-6-oxo-2-piperazino(7H)pyrrolo[2,3-d]pyrimidine phosphate]
- Cells having neurites with a length at least twice the long diameter of cell/total number of cells [1]: 16.6 ± 1.1%
- Cells having neurites with a length at least twice the long diameter of cell/total number of cells [2]: 29.6 ± 3.3%
- Cells having neurites with a length at least twice the long diameter of cell/total number of cells [3]: 47.4 ± 1.6%

Structure (SMILES): CCCC(C)N1Cc2nc(N3CCNCC3)ncc2C1=O (centres unmarked) [Compound 646]
- Cells having neurites with a length at least twice the long diameter of cell/total number of cells [6]: 7.3 ± 0.2%

Structure (SMILES): CCOC(=O)N1CCN(c2ncc3c(n2)N(C)C(=O)C3)CC1 [Compound 442]
- Cells having neurites with a length at least twice the long diameter of cell/total number of cells (Table 3 Run No. 2, 0.1 mM, control 1.9 ± 0.9): 5.7 ± 0.5%
- Cells having neurites with a length at least twice the long diameter of cell/total number of cells (Table 3 Run No. 2, 0.3 mM, control 1.9 ± 0.9): 7.1 ± 2.6%
- Cells having neurites with a length at least twice the long diameter of cell/total number of cells [13]: 9.1 ± 0.8%
- Cells having neurites with a length at least twice the long diameter of cell/total number of cells [8]: 13.8 ± 1.2%

Structure (SMILES): CN1CCc2cnc(N3CCNCC3)nc21 [Compound 914, 5,6-Dihydro-7-methyl-2-piperazino(7H)pyrrolo[2,3-d]pyrimidine naphthalene-2-sulfonate]
- Cells having neurites with a length at least twice the long diameter of cell/total number of cells [6]: 4.9 ± 0.9%
- Cells having neurites with a length at least twice the long diameter of cell/total number of cells (Table 3 Run No. 10, 0.3 mM, control 1.7 ± 0.7): 4.6 ± 0.8%

Structure (SMILES): COCCN1C(=O)Cc2cnc(N3CCNCC3)nc21.O=C(O)/C=C\C(=O)O [Compound 430, 5,6-Dihydro-7-(2-methoxyethyl)-6-oxo-2-piperazino(7H)pyrrolo[2,3-d]pyrimidine maleate]
- Cells having neurites with a length at least twice the long diameter of cell/total number of cells [4]: 7.2 ± 1.9%
- Cells having neurites with a length at least twice the long diameter of cell/total number of cells [10]: 11.7 ± 1.8%
- Cells having neurites with a length at least twice the long diameter of cell/total number of cells [5]: 13.4 ± 0.4%
- Cells having neurites with a length at least twice the long diameter of cell/total number of cells (Table 3 second Run No. 5, 0.3 mM, control 4.5 ± 0.3): 7.6 ± 0.8%
- Cells having neurites with a length at least twice the long diameter of cell/total number of cells [11]: 9.0 ± 0.8%

Structure (SMILES): CN1C(=O)Cc2cnc(N3CCNCC3)nc21 [Compound 410]
- Cells having neurites with a length at least twice the long diameter of cell/total number of cells [1]: 22.4 ± 2.9%
- Cells having neurites with a length at least twice the long diameter of cell/total number of cells [2]: 36.7 ± 6.1%
- Cells having neurites with a length at least twice the long diameter of cell/total number of cells [3]: 15.5 ± 0.3%

Structure (SMILES): CN1C(=O)Cc2cnc(N3CCN(Cc4ccc5c(c4)OCO5)CC3)nc21 [Compound 436, 5,6-Dihydro-7-methyl-2[4-(3,4-methylenedioxyphenylmethyl)piperazino]-6-oxo(7H)pyrrolo[2,3-d]pyrimidine]
- Cells having neurites with a length at least twice the long diameter of cell/total number of cells [12]: 14.3 ± 2.9%
- Cells having neurites with a length at least twice the long diameter of cell/total number of cells [7]: 15.6 ± 7.3%
- Cells having neurites with a length at least twice the long diameter of cell/total number of cells [14]: 12.5 ± 6.2%

Structure (SMILES): NC(=O)CN1Cc2nc(N3CCNCC3)ncc2C1=O [Compound 652]
- Cells having neurites with a length at least twice the long diameter of cell/total number of cells [13]: 4.5 ± 0.3%

Structure (SMILES): CC(C)(C)N1Cc2nc(N3CCNCC3)ncc2C1=O [Compound 642]
- Cells having neurites with a length at least twice the long diameter of cell/total number of cells [7]: 9.5 ± 1.2%
- Cells having neurites with a length at least twice the long diameter of cell/total number of cells [14]: 14.4 ± 4.0%
